What was measured:
[1] = tested on: Staphylococcus aureus (S. aureus) 11540 strain; experiment: Standard microdilution assay, MIC against S. aureus 11540; type: cell-based; conditions: S. aureus 11540 strain, standard microdilution assay, cutoff 16 micrograms/mL, read-out: MIC S. aureus
Procedure: The in vitro activity of the compounds of the present invention can be determined. Antimicrobial testing is typically performed to determine the minimum inhibitory concentration (MIC). Minimum inhibitory concentrations (MICs) are determined by the microdilution method in a final volume of 100 μl according to protocols outlined by The Clinical and Laboratory Standards Institute (CLSI). Performance standards for reference strains are assessed within the same experimental design to maintain quality control. See, for example, Clinical Laboratory Standards Institute: Methods for dilution antimicrobial susceptibility tests for bacteria that grow aerobically M7-A8. Approved Standard-Eighth Edition. Wayne, Pa.: CLSI; December 2008; and Clinical Laboratory Standards Institute: Performance Standards for Antimicrobial Susceptibility Testing M100-S20; Approved Standard-Twentieth Edition. Wayne, Pa.: CLSI; June 2010.
The compounds of the present invention were tested for antimicrobial activity. The Compounds 1-582 were run against Eschericia coli (E. coli) strain ATCC25922 and Compounds 320-582 were run against Staphylococcus aureus (S. aureus) 11540 strain using a standard microdilution assay to determine minimum inhibitory concentrations (MICs). […] It will be recognized by one skilled in the art that the compounds can be assessed against other bacterial organisms and that the presentation of data for activity against Eschericia coli and Staphylococcus aureus are illustrative and in no way is intended to limit the scope of the present invention. The compounds of the present invention can be assayed against a range of other microorganisms depending upon the performance activity desired to be gathered. Furthermore, the “+” and “−” representation and the selection of a cutoff value of 16 micrograms/mL is also illustrative and in no way is intended to limit the scope of the present invention.

[2] = tested on: Eschericia coli (E. coli) strain ATCC25922; experiment: Standard microdilution assay, MIC against E. coli ATCC25922; type: cell-based; conditions: Escherichia coli; E. coli strain ATCC25922, standard microdilution assay; cutoff 16 micrograms/mL; read-out: MIC E. Coli
Method in brief: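 Scoring as + or − used a 16 micrograms/mL cutoff on minimum inhibitory concentrations. These came from CLSI-standard microdilution, quality-controlled with reference strains tested in the same run.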

C[C@H](N)CCCc1cc(OC(F)(F)F)c(F)c(-c2cc3cn(-c4ccc(CN[C@H](C)C[C@H](CN)NC(=N)N)cc4)c(=O)nc3[nH]2)c1 [Compound 398]
MIC [1]: < 16 µg/mL
MIC [2]: < 16 µg/mL

N=C(N)N[C@@H](CN)CCNCc1ccc(-n2cc3cc(-c4cc(CCC[C@@H](N)CO)cc(Cl)c4F)[nH]c3nc2=O)cc1 [Compound 399]
MIC [1]: < 16 µg/mL
MIC [2]: < 16 µg/mL

C[C@H](N)CCCc1cc(Cl)c(F)c(-c2cc3cn(-c4ccc([C@H](C)N(C=O)CCCNC(=N)N)cc4)c(=O)nc3[nH]2)c1 [Compound 400]
MIC [1]: < 16 µg/mL
MIC [2]: < 16 µg/mL

C[C@H](N)CCCc1cc(Cl)c(F)c(-c2cc3cn(-c4ccc(CN[C@H](C)C[C@@H](CN)NC(=N)N)cc4)c(=O)nc3[nH]2)c1 [Compound 401]
MIC [1]: < 16 µg/mL
MIC [2]: < 16 µg/mL

C[C@H](N)CCCc1cc(OC(F)(F)F)c(F)c(-c2cc3cn(-c4ccc(CN[C@H](C)C[C@@H](CN)NC(=N)N)cc4)c(=O)nc3[nH]2)c1 [Compound 402]
MIC [1]: < 16 µg/mL
MIC [2]: < 16 µg/mL

C[C@H](N)CCCc1cc(Cl)c(F)c(-c2cc3cn(-c4ccc(C5(CCN)CN(C(=N)N)C5)cc4)c(=O)nc3[nH]2)c1 [Compound 403]
MIC [1]: < 16 µg/mL
MIC [2]: < 16 µg/mL

C[C@H](N)CCCc1cc(Cl)c(F)c(-c2cc3cn(-c4ccc(C5(CCNC(=N)N)CN(C(=N)N)C5)cc4)c(=O)nc3[nH]2)c1 [Compound 404]
MIC [1]: < 16 µg/mL
MIC [2]: < 16 µg/mL

C[C@H](N)CCCc1cc(Cl)c(F)c(-c2cc3cn(-c4ccc([C@@H]5CC(CCNC(=N)N)CN5)cc4)c(=O)nc3[nH]2)c1 (some centres unmarked) [Compound 405]
MIC [1]: < 16 µg/mL
MIC [2]: < 16 µg/mL

C[C@H](N)CCCc1cc(Cl)c(F)c(-c2cc3cn(-c4ccc([C@@H]5CC(CCN)CN5)cc4)c(=O)nc3[nH]2)c1 (some centres unmarked) [Compound 406]
MIC [1]: < 16 µg/mL
MIC [2]: < 16 µg/mL

C[C@H](N)CCCc1cc(Cl)c(F)c(-c2cc3cn(-c4ccc([C@@H]5CC(CCNC(=N)N)CN5C(=N)N)cc4)c(=O)nc3[nH]2)c1 (some centres unmarked) [Compound 407]
MIC [1]: < 16 µg/mL
MIC [2]: < 16 µg/mL

C[C@H](N)CCCc1cc(OC(F)(F)F)c(F)c(-c2cc3cn(-c4ccc([C@@H]5CC(CCNC(=N)N)CN5)cc4)c(=O)nc3[nH]2)c1 (some centres unmarked) [Compound 408]
MIC [1]: < 16 µg/mL
MIC [2]: < 16 µg/mL

C[C@H](N)CCCc1cc(OC(F)(F)F)c(F)c(-c2cc3cn(-c4ccc([C@@H]5CC(CCN)CN5)cc4)c(=O)nc3[nH]2)c1 (some centres unmarked) [Compound 409]
MIC [1]: < 16 µg/mL
MIC [2]: < 16 µg/mL

C[C@H](N)CCCc1cc(Cl)c(F)c(-c2cc3cn(-c4ccc([C@@H](N)CCCN)cc4)c(=O)nc3[nH]2)c1 [Compound 410]
MIC [1]: < 16 µg/mL
MIC [2]: < 16 µg/mL

C[C@H](N)CCCc1cc(OC(F)(F)F)c(F)c(-c2cc3cn(-c4ccc([C@@H](N)CCCN)cc4)c(=O)nc3[nH]2)c1 [Compound 411]
MIC [1]: < 16 µg/mL
MIC [2]: < 16 µg/mL

C[C@H](N)CCCc1cc(Cl)c(F)c(-c2cc3cn(-c4ccc([C@@H](N)CCCNC(=N)N)cc4)c(=O)nc3[nH]2)c1 [Compound 412]
MIC [1]: < 16 µg/mL
MIC [2]: < 16 µg/mL

C[C@H](N)CCCc1cc(OC(F)(F)F)c(F)c(-c2cc3cn(-c4ccc([C@@H](N)CCCNC(=N)N)cc4)c(=O)nc3[nH]2)c1 [Compound 413]
MIC [1]: < 16 µg/mL
MIC [2]: < 16 µg/mL

CC[C@H](N)CCCc1cc(Cl)c(F)c(-c2cc3cn(-c4ccc([C@H](C)NCC[C@H](CN)NC(=N)N)cc4)c(=O)nc3[nH]2)c1 [Compound 414]
MIC [1]: < 16 µg/mL
MIC [2]: < 16 µg/mL

CC[C@H](N)CCCc1cc(Cl)c(F)c(-c2cc3cn(-c4ccc(CNCC[C@H](CN)NC(=N)N)cc4)c(=O)nc3[nH]2)c1 [Compound 415]
MIC [1]: < 16 µg/mL
MIC [2]: < 16 µg/mL

CC[C@H](N)CCCc1cc(Cl)c(F)c(-c2cc3cn(-c4ccc(CN5CC[C@H](CN)NC5=N)cc4)c(=O)nc3[nH]2)c1 [Compound 416]
MIC [1]: < 16 µg/mL
MIC [2]: < 16 µg/mL

C[C@H](N)CCCc1cc(Cl)c(F)c(-c2cc3cn(-c4ccc(CN5CC[C@H](CN)NC5=N)cc4)c(=O)nc3[nH]2)c1 [Compound 417]
MIC [1]: < 16 µg/mL
MIC [2]: < 16 µg/mL

C[C@H](N)CCCc1cc(Cl)c(F)c(-c2cc3cn(-c4ccc(CN5CC[C@H](CN6CCOCC6)NC5=N)cc4)c(=O)nc3[nH]2)c1 [Compound 418]
MIC [1]: < 16 µg/mL
MIC [2]: < 16 µg/mL

C[C@H](N)CCCc1cc(OC(F)(F)F)c(F)c(-c2cc3cn(-c4ccc(CN5CC[C@H](CN6CCOCC6)NC5=N)cc4)c(=O)nc3[nH]2)c1 [Compound 419]
MIC [1]: < 16 µg/mL
MIC [2]: < 16 µg/mL

C[C@H](N)CCCc1cc(Cl)c(F)c(-c2cc3cn(-c4ccc([C@@H]5CCC[C@@H](CCNC(=N)N)N5)cc4)c(=O)nc3[nH]2)c1 [Compound 420]
MIC [1]: < 16 µg/mL
MIC [2]: < 16 µg/mL

C[C@H](N)CCCc1cc(Cl)c(F)c(-c2cc3cn(-c4ccc([C@@H]5CCC[C@@H](CCN)N5)cc4)c(=O)nc3[nH]2)c1 [Compound 421]
MIC [1]: < 16 µg/mL
MIC [2]: < 16 µg/mL

C[C@H](N)CCCc1cc(Cl)c(F)c(-c2cc3cn(-c4ccc([C@H](C)NCC[C@@H](CNC(=O)CN)NC(=N)N)cc4)c(=O)nc3[nH]2)c1 [Compound 422]
MIC [1]: < 16 µg/mL
MIC [2]: < 16 µg/mL

C[C@H](N)CCCc1cc(OC(F)(F)F)c(F)c(-c2cc3cn(-c4ccc([C@H](C)NCC[C@@H](CNC(=O)CN)NC(=N)N)cc4)c(=O)nc3[nH]2)c1 [Compound 423]
MIC [1]: < 16 µg/mL
MIC [2]: < 16 µg/mL

C[C@H](N)CCCc1cc(Cl)c(F)c(-c2cc3cn(-c4ccc([C@H](C)NCC[C@H](N)CNC(=O)CN)cc4)c(=O)nc3[nH]2)c1 [Compound 424]
MIC [1]: < 16 µg/mL
MIC [2]: < 16 µg/mL

C[C@H](N)CCCc1cc(Cl)c(F)c(-c2cc3cn(-c4ccc([C@@H](N)CCN)cc4)c(=O)nc3[nH]2)c1 [Compound 425]
MIC [1]: < 16 µg/mL
MIC [2]: < 16 µg/mL

C[C@H](N)CCCc1cc(OC(F)(F)F)c(F)c(-c2cc3cn(-c4ccc([C@@H](N)CCN)cc4)c(=O)nc3[nH]2)c1 [Compound 426]
MIC [1]: < 16 µg/mL
MIC [2]: < 16 µg/mL

C[C@H](N)CCCc1cc(Cl)c(F)c(-c2cc3cn(-c4ccc([C@@H](N)CCNC(=N)N)cc4)c(=O)nc3[nH]2)c1 [Compound 427]
MIC [1]: < 16 µg/mL
MIC [2]: < 16 µg/mL

C[C@H](N)CCCc1cc(OC(F)(F)F)c(F)c(-c2cc3cn(-c4ccc([C@@H](N)CCNC(=N)N)cc4)c(=O)nc3[nH]2)c1 [Compound 428]
MIC [1]: < 16 µg/mL
MIC [2]: < 16 µg/mL

C[C@H](N)CCCc1cc(OC(F)(F)F)c(F)c(-c2cc3cn(-c4ccc([C@@H]5CCC[C@@H](CCN)N5)cc4)c(=O)nc3[nH]2)c1 [Compound 429]
MIC [1]: < 16 µg/mL
MIC [2]: < 16 µg/mL

C[C@H](N)CCCc1cc(OC(F)(F)F)c(F)c(-c2cc3cn(-c4ccc([C@@H]5CCC[C@@H](CCNC(=N)N)N5)cc4)c(=O)nc3[nH]2)c1 [Compound 430]
MIC [1]: < 16 µg/mL
MIC [2]: < 16 µg/mL

C[C@H](N)CCCc1cc(Cl)c(F)c(-c2cc3cn(-c4ccc([C@H](C)N5CC[C@@H](NC(=N)N)C5)cc4)c(=O)nc3[nH]2)c1 [Compound 431]
MIC [1]: < 16 µg/mL
MIC [2]: < 16 µg/mL

CC[C@H](NCCCNC(=N)N)c1ccc(-n2cc3cc(-c4cc(CCC[C@@H](N)CO)cc(Cl)c4F)[nH]c3nc2=O)cc1 [Compound 432]
MIC [1]: < 16 µg/mL
MIC [2]: < 16 µg/mL

C[C@H](N)CCCc1cc(Cl)c(F)c(-c2cc3cn(-c4ccc([C@H]5CCC[C@H](CCNC(=N)N)N5)cc4)c(=O)nc3[nH]2)c1 [Compound 433]
MIC [1]: < 16 µg/mL
MIC [2]: < 16 µg/mL

C[C@H](N)CCCc1cc(Cl)c(F)c(-c2cc3cn(-c4ccc(C5(CCNC(=N)N)CNC5)cc4)c(=O)nc3[nH]2)c1 [Compound 434]
MIC [1]: < 16 µg/mL
MIC [2]: < 16 µg/mL

C[C@H](N)CCCc1cc(OC(F)(F)F)c(F)c(-c2cc3cn(-c4ccc(C5(CCNC(=N)N)CNC5)cc4)c(=O)nc3[nH]2)c1 [Compound 435]
MIC [1]: < 16 µg/mL
MIC [2]: < 16 µg/mL

C[C@H](N)CCCc1cc(Cl)c(F)c(-c2cc3cn(-c4ccc(CN[C@@H](C)C[C@@H](CO)NC(=N)N)cc4)c(=O)nc3[nH]2)c1 [Compound 436]
MIC [1]: < 16 µg/mL
MIC [2]: < 16 µg/mL

C[C@H](N)CCCc1cc(Cl)c(F)c(-c2cc3cn(-c4ccc(CN[C@@H](C)C[C@H](CO)NC(=N)N)cc4)c(=O)nc3[nH]2)c1 [Compound 437]
MIC [1]: < 16 µg/mL
MIC [2]: < 16 µg/mL

C[C@H](N)CCCc1cc(Cl)c(F)c(-c2cc3cn(-c4ccc([C@@H]5CCC[C@H](CCNC(=N)N)N5)cc4)c(=O)nc3[nH]2)c1 [Compound 438]
MIC [1]: < 16 µg/mL
MIC [2]: < 16 µg/mL

C[C@H](N)CCCc1cc(OC(F)(F)F)c(F)c(-c2cc3cn(-c4ccc([C@@H]5CCC[C@H](CCNC(=N)N)N5)cc4)c(=O)nc3[nH]2)c1 [Compound 439]
MIC [1]: < 16 µg/mL
MIC [2]: < 16 µg/mL

C[C@H](N)CCCc1cc(Cl)c(F)c(-c2cc3cn(-c4ccc([C@H](N)CCN)cc4)c(=O)nc3[nH]2)c1 [Compound 440]
MIC [1]: < 16 µg/mL
MIC [2]: < 16 µg/mL

Reference: US10815238B2, “Antimicrobial compounds and methods of making and using the same” (BIOVERSYS AG, priority 2013, dated 2020)
